Assay results published in article PMC3585964, “Tissue Inhibitor of Metalloproteinases-3 Peptides Inhibit Angiogenesis and Choroidal Neovascularization in Mice” (PLoS ONE, 2013).
Entries after “also recorded” stand apart in the source; their conditions may differ.

Key:
PAE/KDR cells [1] = experiment: Modified Boyden chamber migration assay; type: cell-based, Porcine; details: peptide up to 20 µM; 50 ng/ml VEGF, 4 h 37°C, mini-Boyden chamber; quadruplicate samples
Method: (§1) Porcine Aortic Endothelial cells expressing VEGFR-2 (PAEKDR) were cultured in Ham’s F-12/DMEM medium supplemented with 10% fetal bovine serum (FBS) (Hyclone), 50 units/ml penicillin and 50 µg/ml streptomycin as described previously. Recombinant human VEGF was a kind gift from Genentech, CA. Antibodies: Anti-Phosphotyrosine clone 4G10 (Upstate Biotechnology/Millipore, Billerica, MA), monoclonal anti-Flk-1 (A-3) (Santa Cruz Biotechnology, Santacruz, CA), MAPK and phospho-specific MAPK antibodies (Calbiochem-Novabiochem Corporation/EMD chemicals, Gibbstown, NJ).
A modified Boyden chamber assay was performed as described previously. Briefly, 8.0 µm pore PVPF polycarbonate membranes were pre-coated with 100 µg/ml collagen type I in 0.2 N acetic acid (Cohesion technologies, Inc. Palo Alto, California). VEGF at the indicated concentrations was placed in the lower chamber, and cells (2×10^5) in serum-free medium were placed in the upper chambers. […] The number of migrating cells per well was evaluated by light microscopy.
Figure 4 Effects of TIMP-3 peptides on VEGF-mediated EC migration. […] Cells were analyzed for migration towards 50 ng/ml VEGF in the presence or absence of increasing concentrations of loop 6 (a) and tail peptides (b) or 20 µM loop 5 or N-peptide (c), respectively, using a mini-Boyden chamber incubated at 37°C for 4 h.

PAE/KDR cells [2] = experiment: Actin reorganization / membrane ruffle formation (FITC-phalloidin); type: cell-based, Porcine; details: peptide at doses as high as 20 µM; 50 ng/ml VEGF 30 min 37°C
Method: as §1
Subconfluent cells cultured on Falcon culture slides (BD Biosciences) were serum-starved overnight and stimulated for 30 min at 37°C with 50 ng/ml VEGF or control buffer. The cells were fixed with 3.7% paraformaldehyde in PBS for 30 min at 4°C and permeabilized with 0.2% Triton X-100 for 20 min at room temperature. Following rinsing with PBS, the cells were incubated with fluorescein isothiocyanate (FITC)-labeled phalloidin in PBS (0.66 µg/ml, Sigma Aldrich, St. Louis, MO) for 20 min at room temperature, washed with PBS and analyzed by fluorescence microscopy.
Figure 5 Effects of TIMP-3 peptides on VEGF-mediated actin reorganization. TIMP-3 loop 6 and tail but not loop 5 and N-peptide inhibit VEGF-induced actin reorganization in PAE/KDR cells. […]

[3] = molecular target: VEGFR-2 (KDR/Fc chimera) binding to VEGF (Homo sapiens, UniProt P35968); experiment: Competitive ELISA, binding of sVEGFR-2/Fc to immobilized VEGF; details: competitive ELISA, 50 ng/ml sVEGFR-2, peptides in 0.5 M Tris-HCl pH 7.5
VEGFR-2 (KDR/Fc chimera) binding to VEGF, sequence (P35968 with tags, fused parts or gaps limits assumed): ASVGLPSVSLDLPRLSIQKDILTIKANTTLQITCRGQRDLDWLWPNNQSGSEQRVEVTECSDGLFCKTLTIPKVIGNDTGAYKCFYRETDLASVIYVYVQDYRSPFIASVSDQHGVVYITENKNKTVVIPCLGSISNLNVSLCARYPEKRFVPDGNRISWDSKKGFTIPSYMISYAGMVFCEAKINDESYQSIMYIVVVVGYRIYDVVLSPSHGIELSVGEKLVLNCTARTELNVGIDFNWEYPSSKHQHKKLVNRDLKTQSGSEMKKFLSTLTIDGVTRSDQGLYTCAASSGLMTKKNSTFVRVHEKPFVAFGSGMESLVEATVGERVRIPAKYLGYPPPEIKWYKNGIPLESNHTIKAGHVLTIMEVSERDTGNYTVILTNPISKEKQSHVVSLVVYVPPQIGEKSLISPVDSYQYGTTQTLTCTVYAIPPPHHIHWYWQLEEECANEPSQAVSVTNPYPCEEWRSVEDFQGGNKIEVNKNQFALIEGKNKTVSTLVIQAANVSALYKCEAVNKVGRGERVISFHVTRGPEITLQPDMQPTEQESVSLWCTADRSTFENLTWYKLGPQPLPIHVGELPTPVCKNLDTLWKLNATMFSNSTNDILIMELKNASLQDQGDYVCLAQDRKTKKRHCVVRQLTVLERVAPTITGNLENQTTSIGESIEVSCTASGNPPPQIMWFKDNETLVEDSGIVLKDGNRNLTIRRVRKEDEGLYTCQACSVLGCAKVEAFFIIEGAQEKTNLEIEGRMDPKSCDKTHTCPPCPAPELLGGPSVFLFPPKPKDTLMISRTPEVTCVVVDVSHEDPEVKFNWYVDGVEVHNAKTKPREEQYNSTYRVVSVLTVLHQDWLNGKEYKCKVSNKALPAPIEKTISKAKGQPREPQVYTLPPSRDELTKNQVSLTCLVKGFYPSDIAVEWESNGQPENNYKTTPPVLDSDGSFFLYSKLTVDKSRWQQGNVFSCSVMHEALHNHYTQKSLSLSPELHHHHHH
Method: (§2) 96 well EIA/RIA strip plates (COSTAR) were coated with 80 ng/ml recombinant VEGF overnight at 4°C, washed and blocked with blocking buffer (1% BSA and 5% sucrose) overnight at 4°C. Series of dilutions were prepared for recombinant proteins representing WT-TIMP-3, NT2:CT3 and N-T3 in PBS or synthetic peptides corresponding to T3-loop 5, T3-loop 6, T3-N or T3-tail peptides in 0.5 M Tris-HCl (pH 7.5). The diluents were mixed with 50 ng/ml recombinant human VEGFR-2 (KDR/Fc chimera, recombinant human VEGFR-1 (Flt-1)/Fc chimera (R&D Systems, Minneapolis, MN) or control human lgG (Sigma Aldrich, St Louis, MO). The mixtures were then added to the VEGF-coated well in a final volume of 100 µL in PBS and incubated for 2 hours at room temperature. Bound VEGFR-2 was detected by HRP-conjugated anti-human lgG(Fc specific) (1∶1000).

[4] = test system: VEGFR-1 (Flt-1)/Fc chimera binding to VEGF; experiment: Competitive ELISA, binding of sVEGFR-1/Fc to immobilized VEGF; set-up: species or system human; details: 50 ng/ml sVEGFR-1 (Flt-1)
Method: as §2

[5] = test system: laser-induced CNV in C57BL/6J mice; experiment: Laser-induced choroidal neovascularization (CNV); type: in vivo, mouse; details: intravitreal, immediately after laser burn, 14 days, C57BL6 mice
Method: All animal studies were approved by the Animal Care and Use Committee of the Cleveland Clinic (IACUC number ARC-08792) and conformed to the National Institutes of Health Guide for the Care and Use of Animals in Research and the ARVO statement for the use of animals in ophthalmic and vision research. All surgery was performed under ketamine/xylazine anesthesia with maximum effort devoted to minimizing suffering. Laser photocoagulation-induced rupture of Bruch’s membrane was used to generate CNV as previously described. Briefly, 4–5 week old C57BL/6J mice were anesthetized with ketamine hydrochloride (100 mg/kg body weight) and xylazine (10 mg/kg body weight) followed by1% Tropicamide (Alcon laboratories, Inc., Fort Worth, TX) for pupillary dilation. Three burns of 532-nm diode laser photocoagulation (Oculight; Iridex, Mountain View California; 50-µm spot size, 0.1 second duration, 200 mW) were delivered to each retina using a slit lamp delivery system and a hand held coverslip as a contact lens. Burns were performed in the 9, 12 and 3 o’clock positions of the posterior pole of the retina. […] Two weeks later, mice were anesthetized and perfused with fluorescein-labeled dextran (2×10^6 average molecular weight, Sigma Aldrich), choroidal flatmounts were prepared and CNV area measured. […]
Five mice were used for each dose of peptide, with three burns in each eye (n = 15–18 successful burns in each group). For quantitative analysis of lesion intensity and size, CNV images were batch processed using a custom macro generated in Image-Pro Plus 5.1 (Media Cybernetics, Silver Spring, MD). […] Mean intensity (range between 10–255 gray levels), perimeter, area, and mean diameter (pixels) were calculated for each ROI and exported to excel. […]
Figure 7 Inhibition of laser-induced CNV by TIMP-3 peptides. […] Effect of Tail peptides on CNV was evaluated by Fluorescein angiogram and Scanning Laser Ophthalmoscopy (SLO). […] CNV lesion size (area X density) was calculated for each dose of T3N-peptide (Fig. 7g), Loop6-peptide (Fig. 7h) and Tail-peptide (fig. 7i).

Sequence	Inhibition of VEGF-induced migration (PAE/KDR cells [1])	Inhibition of VEGF-stimulated membrane ruffle formation (PAE/KDR cells [2])	Effect of synthetic peptides on VEGF binding to sVEGFR-2 (in words) [3]	Effect of synthetic peptides on VEGF binding to sVEGFR-2 (in words) ([3]; listed as Loop5)	Effect of synthetic peptides on VEGF binding to VEGFR-1 (in words) [4]	Inhibition of laser-induced CNV (overall statement) [5]	Inhibition of laser-induced CNV (overall statement) ([5]; listed as N-terminal)
KIKSCYYLPCFVTS [T3-loop 5]	failed to inhibit VEGF-induced migration	neither T3-loop 5 nor T3-N peptide at doses as high as 20 µM inhibited the formation of membrane ruffles	did not show any inhibitory activity	have no effect on sVEGFR-2-VEGF complexes	unable to inhibit sVEGFR-1-VEGF complexes	no angio-inhibitory activity in vitro or in vivo	–
RGFTKMPHVQYIHTEASESL [T3-N peptide]	failed to inhibit VEGF-induced migration	neither T3-loop 5 nor T3-N peptide at doses as high as 20 µM inhibited the formation of membrane ruffles	did not show any inhibitory activity; also recorded: have no effect on sVEGFR-2-VEGF complexes	–	unable to inhibit sVEGFR-1-VEGF complexes	not N-peptide inhibit laser-induced CNV	no angio-inhibitory activity in vitro or in vivo
